Results taken from patent US12240816B2, “Deuterated compounds and uses thereof” (Aldeyra Therapeutics, Inc., priority 2015, dated 2025).
Where a SMILES comes first, the peptide text is derived from it. Where no end group is shown, it is not given here.

Experiments:
Assay in all cases: biochemical
Type in all cases: biochemical
[1] = biological target: enzyme and uptake assay panel targets (Table 36) (Homo sapiens, UniProt Q13370); settings: PDE3B (h); reference compound
[2] = biological target: enzyme and uptake assay panel targets (Table 36) (Homo sapiens, UniProt Q14790); settings: caspase-8 (h); reference compound
[3] = biological target: enzyme and uptake assay panel targets (Table 36) (Homo sapiens, UniProt Q9UQM7); settings: CaMK2α (h); reference compound
[4] = biological target: enzyme and uptake assay panel targets (Table 36) (Homo sapiens, UniProt P42574)
[5] = biological target: T1, enzyme and uptake assay panel targets (Table 36) (Bos taurus, UniProt P11541+P23439); settings: PDE6 (non-selective); reference compound
T1 construct: other: PDE6 (non-selective); 1.0E−05M; nH; bovine retina

[6] = biological target: enzyme and uptake assay panel targets (Table 36) (Homo sapiens, UniProt O76074); settings: PDE5 (h) (non-selective); reference compound
[7] = biological target: enzyme and uptake assay panel targets (Table 36) (Homo sapiens, UniProt P06241); settings: Fyn kinase (h); reference compound
[8] = biological target: enzyme and uptake assay panel targets (Table 36); settings: COMT (catechol-O-methyl transferase); reference compound
[9] = biological target: enzyme and uptake assay panel targets (Table 36) (Homo sapiens, UniProt P08473); settings: Peptidase, Metalloproteinase, Neutral Endopeptidase; reference compound
[10] = biological target: T2, enzyme and uptake assay panel targets (Table 36); settings: ATPase (Na+/K+); reference compound
T2 construct: other: ATPase (Na+/K+); 1.0E−05M; nH; porcine cerebral cortex

[11] = biological target: T3, enzyme and uptake assay panel targets (Table 36) (Bos taurus, UniProt P80457)
T3 construct: other: xanthine oxidase/superoxide 02^−scavenging; nH; other: xanthine oxldase/superoxide 02 ^−scavenging; 1.0E−05M; ot; purified xanthine oxidase from bovine milk

[12] = biological target: enzyme and uptake assay panel targets (Table 36) (Homo sapiens, UniProt P03956)
[13] = biological target: enzyme and uptake assay panel targets (Table 36) (Homo sapiens, UniProt P08253)
[14] = biological target: enzyme and uptake assay panel targets (Table 36) (Homo sapiens, UniProt P14780)
[15] = biological target: enzyme and uptake assay panel targets (Table 36) (Homo sapiens, UniProt P09917)
[16] = biological target: enzyme and uptake assay panel targets (Table 36) (Homo sapiens, UniProt P18054)
enzyme and uptake assay panel targets (Table 36) (Homo sapiens, UniProt P18054), sequence (P18054 whole entry): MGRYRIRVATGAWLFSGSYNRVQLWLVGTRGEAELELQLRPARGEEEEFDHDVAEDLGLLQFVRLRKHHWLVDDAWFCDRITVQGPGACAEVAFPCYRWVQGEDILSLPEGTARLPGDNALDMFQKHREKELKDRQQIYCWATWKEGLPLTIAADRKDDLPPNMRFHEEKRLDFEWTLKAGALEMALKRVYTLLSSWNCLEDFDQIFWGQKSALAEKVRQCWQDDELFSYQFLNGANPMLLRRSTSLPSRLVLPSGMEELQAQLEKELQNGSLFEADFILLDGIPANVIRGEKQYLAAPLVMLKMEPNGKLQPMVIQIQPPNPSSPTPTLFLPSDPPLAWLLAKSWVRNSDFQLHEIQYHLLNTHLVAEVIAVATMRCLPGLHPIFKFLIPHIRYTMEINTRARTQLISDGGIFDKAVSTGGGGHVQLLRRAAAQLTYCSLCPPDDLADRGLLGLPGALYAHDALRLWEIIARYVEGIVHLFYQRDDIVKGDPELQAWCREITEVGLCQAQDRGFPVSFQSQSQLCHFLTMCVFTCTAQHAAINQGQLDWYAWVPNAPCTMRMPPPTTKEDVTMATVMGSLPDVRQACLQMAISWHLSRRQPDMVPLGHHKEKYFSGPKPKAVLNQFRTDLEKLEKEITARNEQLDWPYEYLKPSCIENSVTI

enzyme and uptake assay panel targets (Table 36) (Homo sapiens, UniProt Q14790), sequence (Q14790 217-479): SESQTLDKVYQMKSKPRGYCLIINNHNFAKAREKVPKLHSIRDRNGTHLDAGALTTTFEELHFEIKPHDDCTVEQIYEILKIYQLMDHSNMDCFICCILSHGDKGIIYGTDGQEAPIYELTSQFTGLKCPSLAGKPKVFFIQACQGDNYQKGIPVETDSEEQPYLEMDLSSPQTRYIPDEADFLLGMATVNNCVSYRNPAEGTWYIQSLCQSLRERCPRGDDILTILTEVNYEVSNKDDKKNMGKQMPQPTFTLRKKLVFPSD
enzyme and uptake assay panel targets (Table 36) (Homo sapiens, UniProt P08473), sequence (P08473 whole entry): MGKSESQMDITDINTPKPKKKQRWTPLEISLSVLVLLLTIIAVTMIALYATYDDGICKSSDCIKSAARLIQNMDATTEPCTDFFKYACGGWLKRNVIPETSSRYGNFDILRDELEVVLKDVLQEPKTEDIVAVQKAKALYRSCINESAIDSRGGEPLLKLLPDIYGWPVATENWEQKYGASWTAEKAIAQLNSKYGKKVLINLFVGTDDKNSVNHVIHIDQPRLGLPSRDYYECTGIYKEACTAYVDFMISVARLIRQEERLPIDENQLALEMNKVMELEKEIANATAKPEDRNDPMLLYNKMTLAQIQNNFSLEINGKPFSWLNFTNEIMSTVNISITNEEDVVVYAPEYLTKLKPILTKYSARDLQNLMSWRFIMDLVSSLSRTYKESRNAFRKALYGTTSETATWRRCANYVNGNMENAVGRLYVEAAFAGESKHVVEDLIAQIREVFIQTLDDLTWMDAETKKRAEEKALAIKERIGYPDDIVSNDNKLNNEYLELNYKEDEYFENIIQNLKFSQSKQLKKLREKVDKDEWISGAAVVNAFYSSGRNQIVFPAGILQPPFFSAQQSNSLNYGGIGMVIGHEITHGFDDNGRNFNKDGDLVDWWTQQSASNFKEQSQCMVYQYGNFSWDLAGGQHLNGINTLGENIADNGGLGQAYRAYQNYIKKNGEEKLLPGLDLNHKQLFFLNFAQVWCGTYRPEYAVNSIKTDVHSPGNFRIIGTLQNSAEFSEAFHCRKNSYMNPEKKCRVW
enzyme and uptake assay panel targets (Table 36) (Homo sapiens, UniProt Q9UQM7), sequence (Q9UQM7 whole entry): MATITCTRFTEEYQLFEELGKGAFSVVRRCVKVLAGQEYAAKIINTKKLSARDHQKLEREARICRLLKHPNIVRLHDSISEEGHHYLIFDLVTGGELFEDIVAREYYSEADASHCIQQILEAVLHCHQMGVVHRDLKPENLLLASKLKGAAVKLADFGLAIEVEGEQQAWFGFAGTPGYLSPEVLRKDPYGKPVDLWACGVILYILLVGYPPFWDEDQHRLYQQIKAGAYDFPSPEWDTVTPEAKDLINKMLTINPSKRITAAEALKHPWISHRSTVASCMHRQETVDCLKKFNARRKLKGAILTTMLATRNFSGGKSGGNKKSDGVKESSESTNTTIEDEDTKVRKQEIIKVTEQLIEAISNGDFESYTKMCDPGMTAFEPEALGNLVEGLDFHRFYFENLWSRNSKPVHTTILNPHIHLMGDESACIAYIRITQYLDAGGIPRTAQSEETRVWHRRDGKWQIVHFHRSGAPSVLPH
enzyme and uptake assay panel targets (Table 36) (Homo sapiens, UniProt P09917), sequence (P09917 whole entry): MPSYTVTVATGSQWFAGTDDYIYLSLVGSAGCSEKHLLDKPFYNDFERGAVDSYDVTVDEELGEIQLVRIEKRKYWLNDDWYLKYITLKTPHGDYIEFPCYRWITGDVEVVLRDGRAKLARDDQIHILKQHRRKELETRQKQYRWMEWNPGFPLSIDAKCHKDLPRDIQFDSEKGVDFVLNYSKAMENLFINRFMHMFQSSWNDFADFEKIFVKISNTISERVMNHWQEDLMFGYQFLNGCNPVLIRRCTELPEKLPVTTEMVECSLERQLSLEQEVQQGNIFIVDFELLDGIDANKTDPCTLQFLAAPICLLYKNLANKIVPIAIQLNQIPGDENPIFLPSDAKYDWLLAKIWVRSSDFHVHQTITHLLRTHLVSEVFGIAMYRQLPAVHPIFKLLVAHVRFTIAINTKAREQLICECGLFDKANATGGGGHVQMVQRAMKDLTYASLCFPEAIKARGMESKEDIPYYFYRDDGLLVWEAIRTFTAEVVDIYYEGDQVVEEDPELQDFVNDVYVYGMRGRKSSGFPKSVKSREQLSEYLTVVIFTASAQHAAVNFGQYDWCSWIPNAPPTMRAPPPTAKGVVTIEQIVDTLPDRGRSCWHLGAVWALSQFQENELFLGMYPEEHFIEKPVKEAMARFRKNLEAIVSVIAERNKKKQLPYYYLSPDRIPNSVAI
enzyme and uptake assay panel targets (Table 36) (Homo sapiens, UniProt P42574), sequence (P42574 29-277): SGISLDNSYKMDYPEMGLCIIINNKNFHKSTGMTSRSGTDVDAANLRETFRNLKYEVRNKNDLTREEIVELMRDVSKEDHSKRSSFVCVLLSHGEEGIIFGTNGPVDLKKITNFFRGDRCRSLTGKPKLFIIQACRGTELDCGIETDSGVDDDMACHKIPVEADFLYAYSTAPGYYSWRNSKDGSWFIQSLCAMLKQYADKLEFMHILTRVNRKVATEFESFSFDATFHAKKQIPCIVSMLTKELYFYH
T1 sequence (P11541 2-856): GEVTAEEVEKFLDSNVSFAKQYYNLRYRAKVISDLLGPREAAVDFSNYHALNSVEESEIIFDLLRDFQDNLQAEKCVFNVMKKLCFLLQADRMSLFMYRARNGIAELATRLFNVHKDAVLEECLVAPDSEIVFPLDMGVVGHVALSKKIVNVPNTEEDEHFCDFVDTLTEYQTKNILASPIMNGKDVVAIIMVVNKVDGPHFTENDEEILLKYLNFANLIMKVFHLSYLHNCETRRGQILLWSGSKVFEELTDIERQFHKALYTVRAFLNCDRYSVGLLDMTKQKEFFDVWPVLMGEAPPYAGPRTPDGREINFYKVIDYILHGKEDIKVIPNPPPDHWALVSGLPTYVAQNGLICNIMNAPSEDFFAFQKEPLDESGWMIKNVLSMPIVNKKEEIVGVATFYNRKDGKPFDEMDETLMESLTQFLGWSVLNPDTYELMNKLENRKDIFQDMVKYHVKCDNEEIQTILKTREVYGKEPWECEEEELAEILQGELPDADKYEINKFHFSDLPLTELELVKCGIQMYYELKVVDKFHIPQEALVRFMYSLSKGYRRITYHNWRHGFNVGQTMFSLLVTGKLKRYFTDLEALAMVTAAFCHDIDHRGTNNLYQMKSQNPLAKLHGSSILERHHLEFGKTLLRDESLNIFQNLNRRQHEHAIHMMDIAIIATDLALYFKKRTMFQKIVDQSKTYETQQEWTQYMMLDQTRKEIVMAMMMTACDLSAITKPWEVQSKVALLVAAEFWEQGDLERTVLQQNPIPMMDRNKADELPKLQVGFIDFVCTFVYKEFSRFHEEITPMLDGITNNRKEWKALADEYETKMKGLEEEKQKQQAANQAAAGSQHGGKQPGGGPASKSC
T1 sequence (P23439 2-850): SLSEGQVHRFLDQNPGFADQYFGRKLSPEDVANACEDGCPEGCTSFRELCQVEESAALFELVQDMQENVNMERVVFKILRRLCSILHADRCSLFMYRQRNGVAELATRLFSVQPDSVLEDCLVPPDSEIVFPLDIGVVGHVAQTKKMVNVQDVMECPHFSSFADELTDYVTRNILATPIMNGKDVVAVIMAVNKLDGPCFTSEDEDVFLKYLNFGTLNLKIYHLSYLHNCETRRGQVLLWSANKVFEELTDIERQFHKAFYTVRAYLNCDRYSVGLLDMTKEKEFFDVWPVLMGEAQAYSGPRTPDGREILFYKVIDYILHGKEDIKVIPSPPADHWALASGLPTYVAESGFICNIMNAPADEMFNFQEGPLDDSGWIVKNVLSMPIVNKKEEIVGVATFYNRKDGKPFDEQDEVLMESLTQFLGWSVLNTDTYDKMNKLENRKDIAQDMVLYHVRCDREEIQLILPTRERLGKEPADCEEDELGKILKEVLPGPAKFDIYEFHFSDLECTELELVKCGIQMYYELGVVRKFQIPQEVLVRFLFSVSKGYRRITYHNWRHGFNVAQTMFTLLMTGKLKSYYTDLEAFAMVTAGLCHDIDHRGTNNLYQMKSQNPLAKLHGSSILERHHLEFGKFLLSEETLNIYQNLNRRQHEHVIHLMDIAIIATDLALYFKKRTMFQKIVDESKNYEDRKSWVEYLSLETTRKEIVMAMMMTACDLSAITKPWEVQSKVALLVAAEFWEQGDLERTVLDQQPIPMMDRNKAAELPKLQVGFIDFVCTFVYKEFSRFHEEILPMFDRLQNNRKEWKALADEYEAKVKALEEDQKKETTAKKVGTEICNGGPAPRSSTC
T1 sequence (P04972 whole entry, further chain): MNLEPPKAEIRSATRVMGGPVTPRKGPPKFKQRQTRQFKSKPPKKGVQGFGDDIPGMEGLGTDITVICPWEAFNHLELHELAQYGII

## Cc1[nH]c(=O)c(C#N)cc1-c1ccncc1 [milrinone]
[1]
  nH: 0.9

## CC[C@H](C)[C@H](NC(C)=O)C(=O)N[C@@H](CCC(=O)O)C(=O)N[C@H](C(=O)N[C@H](C=O)CC(=O)O)[C@@H](C)O [Ac-IETD-CHO] (Ac-IETD-aldehyde)
[2]
  IC50: 28 nM
  nH: 0.8

## KKALRRQEAVDAL [AIP]
[3]
  IC50: 260 nM

## CC(=O)N[C@@H](CC(=O)O)C(=O)N[C@@H](CCC(=O)O)C(=O)N[C@H](C(=O)N[C@H](C=O)CC(=O)O)C(C)C [Ac-DEVD-CHO]
[4]
  nH: 1.1

## CCCOc1ccccc1-c1nc2nn[nH]c2c(=O)[nH]1 [zaprinast]
[5]
  nH: 1.0

## OCCN(CCO)c1nc(N2CCCCC2)c2nc(N(CCO)CCO)nc(N3CCCCC3)c2n1 [dipyridamole]
[6]
  nH: 1.1

## Cc1ccc(-c2nn(C(C)(C)C)c3ncnc(N)c23)cc1 [PP1]
[7]
  nH: >3

## O=C(c1cc(O)c(O)c([N+](=O)[O-])c1)c1ccccc1F [Ro 41-0960]
[8]
  IC50: 30 nM

## CC(C)C[C@H](NP(=O)(O)O[C@@H]1O[C@@H](C)[C@H](O)[C@@H](O)[C@H]1O)C(=O)N[C@@H](Cc1c[nH]c2ccccc12)C(=O)O [Phosphoramidon]
[9]
  IC50: 16 nM
  nH: 0.9

## C[C@@H]1O[C@@H](O[C@H]2C[C@@H](O)[C@]3(CO)[C@H]4[C@H](O)C[C@]5(C)[C@@H](C6=CC(=O)OC6)CC[C@]5(O)[C@@H]4CC[C@]3(O)C2)[C@H](O)[C@H](O)[C@H]1O [ouabain]
[10]
  IC50: 1000 nM

## Oc1ncnc2[nH]ncc12 [allopurinol]
[11]
  nH: 1.3

## CNC(=O)[C@H](Cc1c[nH]c2ccccc12)NC(=O)[C@@H](CC(=O)NO)CC(C)C [GM6001]
[12]
  nH: 1.3
[13]
  nH: 1.3
[14]
  nH: 0.9

## CC(Cc1ccc(O)c(O)c1)C(C)Cc1ccc(O)c(O)c1 (stereo not drawn) [NDGA]
[15]
  nH: 1.6
[16]
  nH: 1.2
